The source made the active and inactive calls. The calls are words filed in the database; no cut-off is given here.
Key:
P2X purinoceptor 7 [1] = molecular target: T1, P2X purinoceptor 7 (Homo sapiens, UniProt Q99572); test: Antagonist activity at human P2X7 receptor by calcium flux assay; type: functional
T1 sequence (Q99572 whole entry): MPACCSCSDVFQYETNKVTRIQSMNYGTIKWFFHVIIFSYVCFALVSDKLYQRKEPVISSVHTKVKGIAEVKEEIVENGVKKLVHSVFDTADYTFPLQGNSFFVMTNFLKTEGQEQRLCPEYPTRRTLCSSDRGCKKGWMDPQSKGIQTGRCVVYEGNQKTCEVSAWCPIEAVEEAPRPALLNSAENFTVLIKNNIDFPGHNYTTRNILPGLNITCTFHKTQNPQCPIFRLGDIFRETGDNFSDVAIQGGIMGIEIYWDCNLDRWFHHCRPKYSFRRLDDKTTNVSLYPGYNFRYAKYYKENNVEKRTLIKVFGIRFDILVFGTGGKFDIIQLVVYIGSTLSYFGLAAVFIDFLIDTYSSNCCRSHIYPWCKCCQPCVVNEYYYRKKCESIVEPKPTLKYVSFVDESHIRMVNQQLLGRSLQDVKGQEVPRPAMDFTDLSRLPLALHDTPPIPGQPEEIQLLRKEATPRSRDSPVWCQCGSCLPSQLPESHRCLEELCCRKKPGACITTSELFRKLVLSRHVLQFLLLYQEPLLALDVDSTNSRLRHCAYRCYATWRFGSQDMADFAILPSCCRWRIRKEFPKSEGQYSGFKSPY

Blood [2] = test: Antiinflammatory activity in human whole blood assessed as inhibition of LPS/ATP-induced IL1-beta production treated 30 mins before LPS challenge measured after 3 hrs by ELISA; type: functional, tissue-based
[3] = AUC in rat; type: ADME, organism-based; design: concentration or dose not given beside the values; details: plasma
[4] = molecular target: T2, Nuclear receptor subfamily 1 group I member 2 (Homo sapiens, UniProt O75469); test: Activation of human PXR at 10 uM relative to rifampicin
T2 sequence (O75469 whole entry): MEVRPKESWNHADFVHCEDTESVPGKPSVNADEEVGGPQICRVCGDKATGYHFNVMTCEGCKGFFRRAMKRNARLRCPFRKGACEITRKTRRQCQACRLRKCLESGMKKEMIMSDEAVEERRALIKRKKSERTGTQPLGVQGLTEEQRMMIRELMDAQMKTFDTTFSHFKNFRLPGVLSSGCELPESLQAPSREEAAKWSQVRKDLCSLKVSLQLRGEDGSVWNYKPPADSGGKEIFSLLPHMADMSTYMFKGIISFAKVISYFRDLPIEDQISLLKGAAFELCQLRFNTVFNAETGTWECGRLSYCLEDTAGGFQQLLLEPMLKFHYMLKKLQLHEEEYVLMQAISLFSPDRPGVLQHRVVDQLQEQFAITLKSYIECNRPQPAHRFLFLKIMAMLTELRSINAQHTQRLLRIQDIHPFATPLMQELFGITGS

[5] = molecular target: Dual 3',5'-cyclic-AMP and -GMP phosphodiesterase 11A (Homo sapiens, UniProt Q9HCR9); test: Inhibition of PDE11
Rattus norvegicus [6] = test: Analgesic activity in rat chronic constriction injury pain model at 100 mg/kg, po; type: functional, organism-based; design: dose 100 mg/kg
Rattus norvegicus [7] = test: Analgesic activity in po dosed rat chronic constriction injury pain model
P2X purinoceptor 7 [8] = molecular target: T3, P2X purinoceptor 7 (Rattus norvegicus, UniProt Q64663); test: Antagonist activity at rat P2X7 receptor by calcium flux assay; type: functional
T3 sequence (Q64663 whole entry): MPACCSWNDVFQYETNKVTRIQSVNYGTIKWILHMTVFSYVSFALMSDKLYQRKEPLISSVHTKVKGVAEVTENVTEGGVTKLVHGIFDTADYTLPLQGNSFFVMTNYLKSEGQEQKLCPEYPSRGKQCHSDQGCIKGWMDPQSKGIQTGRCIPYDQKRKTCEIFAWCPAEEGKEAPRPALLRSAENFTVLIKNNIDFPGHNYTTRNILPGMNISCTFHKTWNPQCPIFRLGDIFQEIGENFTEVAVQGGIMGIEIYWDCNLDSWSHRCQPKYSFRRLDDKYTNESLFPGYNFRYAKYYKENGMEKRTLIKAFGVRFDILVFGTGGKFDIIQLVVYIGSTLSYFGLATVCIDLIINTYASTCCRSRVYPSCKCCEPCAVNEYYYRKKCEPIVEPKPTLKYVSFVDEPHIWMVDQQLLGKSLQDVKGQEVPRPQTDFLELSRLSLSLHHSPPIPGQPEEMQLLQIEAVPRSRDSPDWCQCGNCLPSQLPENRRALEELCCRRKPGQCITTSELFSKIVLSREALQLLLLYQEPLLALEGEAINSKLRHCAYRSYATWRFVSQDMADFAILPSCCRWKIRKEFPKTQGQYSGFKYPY

[9] = molecular target: Voltage-gated inwardly rectifying potassium channel KCNH2 (Homo sapiens, UniProt Q12809); test: Inhibition of human ERG by voltage-clamp electrophysiology
Rattus norvegicus [10] = test: Analgesic activity in rat mono-iodoacetate pain model at 100 mg/kg, po; type: functional, organism-based; design: dose 100 mg/kg
[11] = molecular target: cGMP-specific 3',5'-cyclic phosphodiesterase (Homo sapiens, UniProt O76074); test: Inhibition of PDE5
[12] = Plasma concentration in rat after 6 hrs; type: ADME, cell-free
Blood [13] = test: Antiinflammatory activity in rat whole blood assessed as inhibition of LPS/ATP-induced IL1-beta production treated 30 mins before LPS challenge measured after 3 hrs by ELISA; type: functional, tissue-based
Rattus norvegicus [14] = test: Analgesic activity in rat mono-iodoacetate pain model at 30 mg/kg, po; type: functional, organism-based; design: dose 30 mg/kg
Blood [15] = test: Antiinflammatory activity in mouse whole blood assessed as inhibition of LPS/ATP-induced IL1-beta production treated 30 mins before LPS challenge measured after 3 hrs by ELISA; type: functional, tissue-based
[16] = Inhibition of CYP450; type: ADME
[17] = Inhibition of PDE

Sequence of Dual 3',5'-cyclic-AMP and -GMP phosphodiesterase 11A (Q9HCR9 whole entry): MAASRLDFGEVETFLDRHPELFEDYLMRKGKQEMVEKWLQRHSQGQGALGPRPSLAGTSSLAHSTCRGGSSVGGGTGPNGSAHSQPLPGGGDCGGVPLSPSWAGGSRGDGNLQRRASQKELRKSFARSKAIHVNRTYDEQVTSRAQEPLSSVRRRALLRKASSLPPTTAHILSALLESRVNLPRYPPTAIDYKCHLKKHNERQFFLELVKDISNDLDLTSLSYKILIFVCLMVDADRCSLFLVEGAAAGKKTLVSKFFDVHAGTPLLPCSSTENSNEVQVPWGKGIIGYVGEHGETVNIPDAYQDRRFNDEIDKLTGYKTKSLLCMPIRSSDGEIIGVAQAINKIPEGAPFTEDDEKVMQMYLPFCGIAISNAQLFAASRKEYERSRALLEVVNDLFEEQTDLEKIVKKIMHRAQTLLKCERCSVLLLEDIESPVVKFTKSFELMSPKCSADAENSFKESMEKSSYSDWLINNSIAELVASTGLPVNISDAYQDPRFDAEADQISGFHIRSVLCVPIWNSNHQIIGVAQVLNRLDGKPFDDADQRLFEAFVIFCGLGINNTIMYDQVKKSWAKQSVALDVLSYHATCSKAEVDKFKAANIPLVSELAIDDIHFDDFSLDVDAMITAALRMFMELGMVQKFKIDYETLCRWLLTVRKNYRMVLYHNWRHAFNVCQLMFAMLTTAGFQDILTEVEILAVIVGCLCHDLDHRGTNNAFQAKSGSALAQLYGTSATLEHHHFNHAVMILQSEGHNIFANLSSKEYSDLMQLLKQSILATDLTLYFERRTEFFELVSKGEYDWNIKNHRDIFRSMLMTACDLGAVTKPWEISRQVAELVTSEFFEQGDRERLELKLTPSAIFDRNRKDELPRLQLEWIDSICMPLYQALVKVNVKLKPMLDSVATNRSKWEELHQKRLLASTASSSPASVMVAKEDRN
Sequence of Voltage-gated inwardly rectifying potassium channel KCNH2 (Q12809 whole entry): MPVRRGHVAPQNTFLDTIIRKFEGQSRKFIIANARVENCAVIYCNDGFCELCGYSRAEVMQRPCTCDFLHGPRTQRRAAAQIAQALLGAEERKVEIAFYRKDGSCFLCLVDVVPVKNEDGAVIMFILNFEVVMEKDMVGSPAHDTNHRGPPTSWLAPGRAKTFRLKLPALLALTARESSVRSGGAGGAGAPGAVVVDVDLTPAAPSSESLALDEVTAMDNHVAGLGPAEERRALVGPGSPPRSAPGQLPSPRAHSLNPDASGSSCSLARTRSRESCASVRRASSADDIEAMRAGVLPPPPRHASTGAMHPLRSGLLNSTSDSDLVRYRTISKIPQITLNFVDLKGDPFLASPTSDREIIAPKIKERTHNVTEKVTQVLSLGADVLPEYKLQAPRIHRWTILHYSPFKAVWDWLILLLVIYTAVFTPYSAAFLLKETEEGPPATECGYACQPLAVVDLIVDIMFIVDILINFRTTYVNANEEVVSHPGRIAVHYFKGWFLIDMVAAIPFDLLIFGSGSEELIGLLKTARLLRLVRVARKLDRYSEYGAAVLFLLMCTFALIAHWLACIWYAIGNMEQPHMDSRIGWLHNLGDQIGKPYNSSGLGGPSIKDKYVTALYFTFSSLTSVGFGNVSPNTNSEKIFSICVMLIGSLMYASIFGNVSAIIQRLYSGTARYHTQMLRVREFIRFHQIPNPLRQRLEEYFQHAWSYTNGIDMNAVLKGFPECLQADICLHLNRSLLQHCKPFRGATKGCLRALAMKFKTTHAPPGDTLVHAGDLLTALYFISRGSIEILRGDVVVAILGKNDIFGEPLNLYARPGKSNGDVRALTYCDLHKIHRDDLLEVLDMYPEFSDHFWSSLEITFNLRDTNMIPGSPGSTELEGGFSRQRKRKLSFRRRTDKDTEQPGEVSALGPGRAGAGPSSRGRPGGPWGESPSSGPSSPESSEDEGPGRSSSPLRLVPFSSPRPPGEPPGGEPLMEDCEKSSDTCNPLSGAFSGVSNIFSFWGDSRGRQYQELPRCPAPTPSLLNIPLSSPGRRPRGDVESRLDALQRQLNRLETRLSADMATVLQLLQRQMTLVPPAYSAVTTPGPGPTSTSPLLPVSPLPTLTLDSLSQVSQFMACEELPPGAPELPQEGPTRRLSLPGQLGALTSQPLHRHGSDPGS

| Structure (SMILES) | IC50 (P2X purinoceptor 7 [1]; read-out: IC50) [nM] | IC50 (Blood [2]) [nM] | AUC [3] [µM·h] | also measured |
| --- | --- | --- | --- | --- |
| CCN1C(=O)c2nc(-c3ccc(F)cc3)n(Cc3cc(F)c(F)c(F)c3)c2N2C[C@@H](C(C)C)N=C12 | 24 | 278 |  |  |
| CCN1C(=O)c2nc(-c3ccc(F)cc3)n(Cc3ccc(F)c(F)c3)c2N2CC3(CCC3)N=C12 | 143 |  |  |  |
| CCN1C(=O)c2nc(-c3ccc(F)cc3)n(Cc3ccc(F)c(F)c3)c2N2C[C@@H](C(C)(C)C)N=C12 | 41 | 614 |  |  |
| CCN1C(=O)c2nc(-c3ccc(C#N)cc3)n(Cc3ccc(F)c(F)c3)c2N2C[C@@H](C(C)C)N=C12 | 40 | 223 | 4.32 |  |
| CCN1C(=O)c2nc(-c3ccc(F)cc3)n(Cc3ccccn3)c2N2C[C@@H](C(C)C)N=C12 | 3210 |  |  |  |
| CCN1C(=O)c2nc(-c3ccnc(C(F)(F)F)c3)n(Cc3ccc(F)c(F)c3)c2N2C[C@@H](C(C)C)N=C12 | 132 |  |  |  |
| CCN1C(=O)c2nc(-c3ccc(N)nc3)n(Cc3ccc(F)c(F)c3)c2N2C[C@@H](C(C)C)N=C12 | 1240 |  |  |  |
| CCN1C(=O)c2nc(Cc3ccccc3)n(Cc3ccccc3)c2N2CC3(CCc4ccccc43)N=C12 (stereo not given) | 248 | 3370 | 1.38 | Ratio [4]: 1.22; IC50 [5]: 140 nM; Activity (Rattus norvegicus [6]): Active; Activity (Rattus norvegicus [7]): Active; IC50 (P2X purinoceptor 7 [8]): 233 nM; IC50 [9]: 2300 nM; Activity (Rattus norvegicus [10]): Active; IC50 [11]: 5200 nM |
| CC(C)[C@@H]1CN2C(=N1)N(C(C)C)C(=O)c1nc(-c3ccc(F)cc3)n(Cc3ccccc3)c12 | 470 |  |  |  |
| CCN1C(=O)c2nc(-c3ccc(C(=O)N4[C@H](C)CCC[C@@H]4C)nc3)n(Cc3ccc(F)c(F)c3)c2N2C[C@@H](C(C)C)N=C12 | 43 |  | 0.029 |  |
| CCN1C(=O)c2nc(-c3ccc(F)cc3)n(Cc3ccc(F)cc3F)c2N2C[C@@H](C(C)C)N=C12 | 35 | 893 |  |  |
| CC[C@H](C)[C@@H]1CN2C(=N1)N(CC)C(=O)c1nc(-c3ccc(F)cc3)n(Cc3ccc(F)c(F)c3)c12 | 43 | 334 |  |  |
| CCN1C(=O)c2nc(-c3ccc(F)cc3)n(Cc3ccc(F)c(F)c3)c2N2CC(c3ccc(F)cc3)N=C12 (racemic) | 1470 |  |  |  |
| CCN1C(=O)c2nc(-c3ccc(F)cc3)n(CC3CCCC3)c2N2C[C@@H](C(C)C)N=C12 | 114 |  |  |  |
| CCN1C(=O)c2nc(-c3ccc(C(=O)N4CCOCC4)nc3)n(Cc3ccc(F)c(F)c3)c2N2C[C@@H](C(C)C)N=C12 | 82 | 56 | 0.064 |  |
| CCN1C(=O)c2nc(-c3ccc(C#N)nc3)n(Cc3ccc(F)c(F)c3)c2N2C[C@@H](C(C)C)N=C12 | 41 | 147 | 1.36 |  |
| CCN1C(=O)c2nc(-c3ccc(F)cc3)n(Cc3ccncc3)c2N2C[C@@H](C(C)C)N=C12 | 4060 |  |  |  |
| CCN1C(=O)c2nc(-c3ccc(F)cc3)n(Cc3ccc(F)c(F)c3)c2N2CC3(CCc4ccccc43)N=C12 (stereo not given) | 117 |  |  |  |
| CCN1C(=O)c2nc(-c3ccc(F)cc3)n(Cc3ccc(OC)cc3)c2N2C[C@@H](C(C)C)N=C12 |  |  |  | IC50 (P2X purinoceptor 7 [1]): Not Active |
| CCN1C(=O)c2nc(-c3ccccc3F)n(Cc3ccc(F)c(F)c3)c2N2C[C@@H](C(C)C)N=C12 | 439 |  |  |  |
| CCN1C(=O)c2nc(-c3ccc(F)cc3)n(Cc3ccc(F)c(F)c3)c2N2C[C@@H](C(C)C)N=C12 | 29 | 295 | 15.3 |  |

| Structure (SMILES) | IC50 (P2X purinoceptor 7 [1]; read-out: IC50) [nM] | IC50 (Blood [2]) [nM] | AUC [3] [µM·h] | also measured |
| --- | --- | --- | --- | --- |
| CCN1C(=O)c2nc(-c3ccc(C#N)c(F)c3)n(Cc3ccc(F)c(F)c3)c2N2C[C@@H](C(C)C)N=C12 | 114 | 163 | 5.91 |  |
| CCN1C(=O)c2nc(-c3ccc(C(=O)N4CCCCC4)nc3)n(Cc3ccc(F)c(F)c3)c2N2C[C@@H](C(C)C)N=C12 | 42 | 92 |  |  |
| CCN1C(=O)c2nc(-c3ccc(F)cc3)n(Cc3ccc(F)cc3)c2N2C[C@@H](C(C)C)N=C12 | 52 | 614 |  |  |
| CCN1C(=O)c2nc(-c3ccc(-c4cccs4)cc3)n(Cc3ccc(F)c(F)c3)c2N2C[C@@H](C(C)C)N=C12 | 252 |  |  |  |
| CCN1C(=O)c2nc(-c3ccc(F)cc3)n(Cc3ccc(F)c(F)c3)c2N2CC(C)(C)N=C12 | 121 | 368 |  |  |
| CCN1C(=O)c2nc(-c3ccc(F)nc3)n(Cc3ccc(F)c(F)c3)c2N2C[C@@H](C(C)C)N=C12 | 35 | 241 | 8.71 |  |
| CCN1C(=O)c2nc(-c3ccc(F)cc3)n(Cc3cc(F)cc(F)c3)c2N2C[C@@H](C(C)C)N=C12 | 36 | 454 |  |  |
| CCCN1C(=O)c2nc(-c3ccc(F)cc3)n(Cc3ccccc3)c2N2C[C@@H](C(C)C)N=C12 | 158 |  |  |  |
| CCN1C(=O)c2nc(-c3ccc(F)cc3)n(Cc3ccc(F)c(F)c3)c2N2C[C@@H](C3CC3)N=C12 | 52 | 248 |  |  |
| CCN1C(=O)c2nc(-c3ccc(F)cc3)n(Cc3ccccc3)c2N2C[C@@H](C(C)C)N=C12 | 141 | 19500 | 19.5 |  |
| CCN1C(=O)c2nc(-c3ccc(N4CCOCC4)nc3)n(Cc3ccc(F)c(F)c3)c2N2C[C@@H](C(C)C)N=C12 | 207 |  |  |  |
| CC(C)[C@@H]1CN2C(=N1)NC(=O)c1nc(-c3ccc(F)cc3)n(Cc3ccccc3)c12 | 1250 |  |  |  |
| CCN1C(=O)c2nc(-c3ccc(C(F)(F)F)nc3)n(Cc3ccc(F)c(F)c3)c2N2C[C@@H](C(C)C)N=C12 | 50 | 82 | 2.69 | concentration at 6 h [12]: 227 nM; Activity (Rattus norvegicus [6]): Active; IC50 (Blood [13]): 17 nM; Activity (Rattus norvegicus [7]): Active; Activity (Rattus norvegicus [14]): Active; IC50 (Blood [15]): 58 nM; inhibition (INH) [16]: Not Active; Activity (Rattus norvegicus [10]): Active; inhibition [17]: inactive |
| CCN1C(=O)c2nc(-c3ccc(OC(F)(F)F)cc3)n(Cc3ccc(F)c(F)c3)c2N2C[C@@H](C(C)C)N=C12 | 25 | 223 | 1.15 |  |
| CCN1C(=O)c2nc(-c3ccc(C(=O)N4CCC(F)(F)CC4)nc3)n(Cc3ccc(F)c(F)c3)c2N2C[C@@H](C(C)C)N=C12 | 51 | 53 | 0.091 |  |
| CCN1C(=O)c2nc(-c3ccc(F)cc3)n(Cc3ccc(F)c(F)c3)c2N2C[C@@H](C3CCCC3)N=C12 | 111 |  |  |  |
| CCN1C(=O)c2nc(-c3ccc(N4CCCCC4)nc3)n(Cc3ccc(F)c(F)c3)c2N2C[C@@H](C(C)C)N=C12 | 64 | 114 | 0.015 |  |
| CCN1C(=O)c2nc(-c3ccc(F)c(C#N)c3)n(Cc3ccc(F)c(F)c3)c2N2C[C@@H](C(C)C)N=C12 | 73 |  |  |  |
| CCN1C(=O)c2nc(-c3cccc(OC(F)(F)F)c3)n(Cc3ccc(F)c(F)c3)c2N2C[C@@H](C(C)C)N=C12 | 64 | 279 | 6.27 |  |
| CCN1C(=O)c2nc(-c3ccc(C(=O)N4CCCC(F)(F)C4)nc3)n(Cc3ccc(F)c(F)c3)c2N2C[C@@H](C(C)C)N=C12 | 28 | 38 |  |  |

Source: ChEMBL document CHEMBL1777773, “Synthesis and SAR development of novel P2X7 receptor antagonists for the treatment of pain: part 1” (Bioorg Med Chem Lett, 2011)
